Test results published in ChEMBL document CHEMBL5696444 (Nat Commun, 2017).

What was measured:
[1] = system: HCT-116; assay: Induction of apoptosis in human HCT-116 cells assessed as late apoptosis at 0.1 uM incubated for > 6 hrs by annexin V/PI staining based analysis (Rvb=6.12%); type: functional
[2] = target: Mitogen-activated protein kinase 8 (Homo sapiens) (UniProt P45983); assay: Inhibition of MAPK8 (unknown origin) at 100 nM in the presence of ATP by Kinome scan method relative to control
Chain of Mitogen-activated protein kinase 8 (Homo sapiens) (P45983 whole entry): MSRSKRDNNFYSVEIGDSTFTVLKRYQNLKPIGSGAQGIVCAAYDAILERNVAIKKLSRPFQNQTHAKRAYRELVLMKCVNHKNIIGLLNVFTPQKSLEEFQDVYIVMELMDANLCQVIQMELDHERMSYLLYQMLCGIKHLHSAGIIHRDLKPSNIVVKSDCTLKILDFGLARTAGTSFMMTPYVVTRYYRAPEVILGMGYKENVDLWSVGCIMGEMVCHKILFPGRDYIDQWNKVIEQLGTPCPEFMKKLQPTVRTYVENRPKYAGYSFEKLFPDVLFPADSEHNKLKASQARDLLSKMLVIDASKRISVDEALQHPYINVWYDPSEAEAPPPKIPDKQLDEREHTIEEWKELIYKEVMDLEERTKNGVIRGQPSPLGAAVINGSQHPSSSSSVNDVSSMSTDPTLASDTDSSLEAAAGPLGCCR

CN1CCN(C(=O)C(C)(C)c2ccc(C(=O)Nc3cn4cc(-c5ccncc5)ccc4n3)cc2)CC1 [T3-CLK]
Activity [1]: 8.29% | inhibition [2]: 5%
